The nature of data set [1]: Diastereomer interconversion. It counts as physicochemical. As to conditions: in vitro and in vivo. The text has this:
(S,R,R)-Compound A and (R,R,R)-Compound A, which are designated as Compound B and Compound C, respectively. In some embodiments, Compound A is Compound B. In some embodiments, Compound A is Compound C. In some embodiments, Compound A is a mixture of Compound B and Compound C. […] In some embodiments, Compound A, Compound B, Compound C, or a pharmaceutically acceptable salt thereof, is amorphous. In some embodiments, Compound A, Compound B, Compound C, or a pharmaceutically acceptable salt thereof, is in crystal form.

Data set [2] has as its system patients with hidradenitis suppurativa (HS). As to conditions: Phase 2 and 3, week 4; cited from earlier work.
In data set [3] the test system is patients with atopic dermatitis (AD). As to conditions: Phase 3, week 4; cited from earlier work.

This is an account of results in US20260207614A1, “IRAK4 DEGRADERS AND USES THEREOF” (Kymera Therapeutics, Inc., priority 2022, published 2026).

Take `Cn1c(=O)n([C@H]2CCC(=O)NC2=O)c2cccc(C#CCOC3CCN(C[C@H]4CC[C@H](n5cc(NC(=O)c6cnn7ccc(N8C[C@H]9C[C@@H]8CO9)nc67)c(C(F)F)n5)CC4)CC3)c21` [Compound B, 5-((1R,4R)-2-oxa-5-azabicyclo[2.2.1]heptan-5-yl)-N-(3-(difluoromethyl)-1-((1r,4R)-4-((4-((3-(1-((S)-2,6-dioxopiperidin-3-yl)-3-methyl-2-oxo-2,3-dihydro-1H-benzo[d]imidazol-4-yl)prop-2-yn-1-yl)oxy)piperidin-1-yl)methyl)cyclohexyl)-1H-pyrazol-4-yl)pyrazolo[1,5-a]pyrimidine-3-carboxamide]: in data set [1], the interconversion of diastereomers entry is “interconvert rapidly”.

With `Cn1c(=O)n([C@@H]2CCC(=O)NC2=O)c2cccc(C#CCOC3CCN(C[C@H]4CC[C@H](n5cc(NC(=O)c6cnn7ccc(N8C[C@H]9C[C@@H]8CO9)nc67)c(C(F)F)n5)CC4)CC3)c21` [Compound C, 5-((1R,4R)-2-oxa-5-azabicyclo[2.2.1]heptan-5-yl)-N-(3-(difluoromethyl)-1-((1r,4R)-4-((4-((3-(1-((R)-2,6-dioxopiperidin-3-yl)-3-methyl-2-oxo-2,3-dihydro-1H-benzo[d]imidazol-4-yl)prop-2-yn-1-yl)oxy)piperidin-1-yl)methyl)cyclohexyl)-1H-pyrazol-4-yl)pyrazolo[1,5-a]pyrimidine-3-carboxamide], the interconversion of diastereomers result in data set [1] is reported as “interconvert rapidly”.

As for Adalimumab, in data set [2], the “Responders: AN Count 0/1/2” value is recorded as 28-47%^2, 3; the “Responders: HiSCR50” value is reported as 29-51%^3, 4; the “Responders: HiSCR75” value was 20%^4; the “Responders: Pain NRS30” value is on record as 39-58%^2, 3, 5. Further, the “ΔAN Count” value in data set [2] is on record as −31%^1.

Dupilumab: in data set [3], the “Responders: Peak Pruritis NRS, Past Week/Past 24 Hours, first value” is 23%; the “Responders: Peak Pruritis NRS, Past Week/Past 24 Hours, second value” is recorded as 40%; the ΔEASI is recorded as −52%^1; the “ΔPeak Pruritis NRS: Past Week/Past 24 Hours” value is −34%^1.
